# According to patent US9796733B2, “Imidazo-pyrazine derivatives useful as soluble guanylate cyclase activators” (Merck Sharp & Dohme Corp., priority 2014, dated 2017):
# Molecular target: T1, sGC α1/β1 heterodimer (Homo sapiens, UniProt Q02108+Q02153)
# T1 construct: expressed in transfected cells; host or cells: CHO-K1 (clone #7, CHO-K1/sGC)
# T1 sequence (Q02108 1-690): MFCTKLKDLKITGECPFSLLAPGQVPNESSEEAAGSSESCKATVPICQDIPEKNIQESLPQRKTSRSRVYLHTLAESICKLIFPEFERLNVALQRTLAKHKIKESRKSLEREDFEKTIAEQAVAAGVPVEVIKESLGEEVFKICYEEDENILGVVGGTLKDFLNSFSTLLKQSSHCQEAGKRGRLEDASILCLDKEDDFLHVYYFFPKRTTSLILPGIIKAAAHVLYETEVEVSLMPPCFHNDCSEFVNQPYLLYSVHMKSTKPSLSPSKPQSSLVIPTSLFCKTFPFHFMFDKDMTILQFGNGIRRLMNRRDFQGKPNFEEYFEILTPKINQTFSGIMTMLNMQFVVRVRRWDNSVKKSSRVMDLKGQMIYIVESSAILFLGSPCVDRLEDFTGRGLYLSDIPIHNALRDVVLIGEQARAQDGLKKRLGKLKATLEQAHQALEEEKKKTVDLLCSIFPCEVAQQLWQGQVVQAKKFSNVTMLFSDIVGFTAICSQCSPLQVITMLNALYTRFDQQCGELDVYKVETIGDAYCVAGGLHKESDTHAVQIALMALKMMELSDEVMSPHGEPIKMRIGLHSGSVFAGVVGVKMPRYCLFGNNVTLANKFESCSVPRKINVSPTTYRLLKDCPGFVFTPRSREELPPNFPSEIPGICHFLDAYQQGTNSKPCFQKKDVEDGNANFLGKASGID
# T1 sequence (Q02153 1-619): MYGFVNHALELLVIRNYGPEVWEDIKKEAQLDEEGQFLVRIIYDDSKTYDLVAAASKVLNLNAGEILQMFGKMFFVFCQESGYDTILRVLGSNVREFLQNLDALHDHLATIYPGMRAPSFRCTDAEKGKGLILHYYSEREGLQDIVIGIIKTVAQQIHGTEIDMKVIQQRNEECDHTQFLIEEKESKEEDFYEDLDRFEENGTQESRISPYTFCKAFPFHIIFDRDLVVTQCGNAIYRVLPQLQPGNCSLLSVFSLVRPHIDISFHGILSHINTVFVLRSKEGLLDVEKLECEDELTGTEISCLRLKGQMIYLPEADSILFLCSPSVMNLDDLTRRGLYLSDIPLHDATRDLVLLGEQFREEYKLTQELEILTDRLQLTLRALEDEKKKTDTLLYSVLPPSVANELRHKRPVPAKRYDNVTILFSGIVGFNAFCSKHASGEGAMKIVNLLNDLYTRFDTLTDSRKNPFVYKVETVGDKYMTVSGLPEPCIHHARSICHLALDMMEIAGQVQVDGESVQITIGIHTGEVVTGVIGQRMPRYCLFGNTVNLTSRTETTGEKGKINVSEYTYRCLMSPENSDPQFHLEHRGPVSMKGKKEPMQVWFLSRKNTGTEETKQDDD
# Test: Cell-based sGC functional assay (CASA assay): cGMP generation in CHO-K1/sGC cells, HTRF detection
# Conditions: for Emax: CHO-K1, percent activation relative to standard Compound A in CHO-K1/sGC cells, read-out: % Act.; for EC50: inflection point (IP) of cGMP generation in CHO-K1/sGC cells, 4P fit, activity expressed as percentage of Compound A; for % Act.: percent activation relative to standard Compound A in CHO-K1/sGC cells
# Text: Biological Assay 1: Cell-Based sGC Functional Assay (CASA Assay)
# sGC is a heme-containing enzyme that converts GTP to secondary messenger cGMP. Increases in cGMP levels affect several physiological processes including vasorelaxation through multiple downstream pathways. […] Heme-dependent activators (HDAs) preferentially activate sGC containing a ferrous heme group. To determine the effect of sGC activators on enzyme activity, the CASA assay was developed to monitor the generation of cGMP in a cell line that stably expresses the heterodimeric sGC protein.
# A CHO-K1 cell line stably expressing the sGC α1/β1 heterodimer was generated using a standard transfection protocol. CHO-K1 cells were transfected with plasmids pIREShyghsGCal and pIRESneo-hsGCβ1 simultaneously using FUGENE reagent. Clones that stably express both subunits were selected with hygromycin and neomycin for 2 weeks. Clone #7 was chosen for the assay and was designated CHO-K1/sGC. CHO-K1/sGC cells were maintained in F-K12 medium containing 10% heat-inactivated Fetal Bovine Serum (FBS), 100 μg/mL penicillin/streptomycin, 0.5 mg/mL hygromycin and 0.25 mg/mL G418. The cells were then cryopreserved in LN2. On the day of the assay, cells thawed and resuspended in EBSS Assay Buffer (Sigma, E3024) supplemented with 5 mM MgCl2, 10 mM HEPES (4-(2-hydroxyethyl)piperazine-1-ethanesulfonic acid) and 0.05% BSA (bovine serum albumin) (EAB) and cell density was then adjusted to 4×10^5/mL with EAR IBMX (3-isobutyl-1-methylxanthin, 0.5 mM) was added to inhibit degradation of cGMP. Compounds were diluted from DMSO stock solutions and added to the assay at a final DMSO concentration of 2.5%. Cells were incubated with compounds in the presence and absence of 1 μM of Diethylenetriamine/nitric oxide adduct (DETA-NO; Sigma, 17018) for 1 hr at 37° C. At the end of the incubation period, the reaction was terminated and the cells were lysed with the detection reagents from Cisbio Kits. The level of intracellular cGMP was determined using an HTRF-based assay kit (CisBio, 62GM2PEC), which detects the displacement of a fluorescence labeled cGMP from its specific antibody. The cGMP produced by test compounds was directly compared to the maximum cGMP production (this value was set to equal 100% activation.) of the published sGC-HDA Compound A:
# [drawing 597] (Example 1 in WO 2010/065275, published Jun. 10, 2010). The test compounds' activities were then expressed as a percentage of Compound A, the standard in every experiment. This percent activation was calculated either in the presence or absence of DETA-NO which was then plotted. IP and maximum fold induction was derived using ADA analysis software for 4P fit.
# The compounds in the Examples of the instant invention had inflection points (IP) less than or equal to 10 μM and more particularly less than or equal to about 1 μM.
Compound,Emax [%],EC50 [nM],% Act. [%]
"CC1(C(=O)NC2CC2)C(=O)Nc2nc(-c3cn4ccnc4c(Cc4cccc(F)c4)n3)nc(N)c21 (single isomer, unassigned) [Example 31A, 4-Amino-N-cyclopropyl-2-(8-(3-fluorobenzyl)imidazo[1,2-a]pyrazin-6-yl)-5-methyl-6-oxo-6,7-dihydro-5H-pyrrolo[2,3-d]pyrimidine-5-carboxamide]",141,46,
"CC1(C(=O)NC2CC2)C(=O)Nc2nc(-c3cn4ccnc4c(Cc4cccc(F)c4)n3)nc(N)c21 (single isomer, unassigned) [Example 36A, 4-amino-N-cyclopropyl-2-(8-(3-fluorobenzyl)imidazo[1,2-a]pyrazin-6-yl)-5-methyl-6-oxo-6,7-dihydro-5H-pyrrolo[2,3-d]pyrimidine-5-carboxamide]",,304,151
"Nc1nc(-c2cn3ccnc3c(Cc3ccccc3)n2)nc2c1C(C(=O)NC1CC1)(C1CC1)C(=O)N2 (single isomer, unassigned) [Example 40A, 4-amino-2-(8-benzylimidazo[1,2-a]pyrazin-6-yl)-N,5-dicyclopropyl-6-oxo-6,7-dihydro-5H-pyrrolo[2,3-d]pyrimidine-5-carboxamide]",,53,138
"Nc1nc(-c2cn3cc(C(F)(F)F)nc3c(Cc3ccccc3F)n2)nc2c1C(C(=O)NC1CC1)(C1CC1)C(=O)N2 (single isomer, unassigned) [Example 45B, 4-amino-N,5-dicyclopropyl-2-(8-(2-fluorobenzyl)-2-(trifluoromethyl)imidazo[1,2-a]pyrazin-6-yl)-6-oxo-6,7-dihydro-5H-pyrrolo[2,3-d]pyrimidine-5-carboxamide]",75,217,
"CCC1(C2CC2)C(=O)Nc2nc(-c3cn4ccnc4c(Cc4ccccc4)n3)nc(N)c21 (single isomer, unassigned) [Example 77A, 4-amino-2-(8-benzylimidazo[1,2-a]pyrazin-6-yl)-5-cyclopropyl-5-ethyl-5H-pyrrolo[2,3-d]pyrimidin-6(7H)-one]",,90,151
"CCC1(C2CC2)C(=O)Nc2nc(-c3cn4ccnc4c(Cc4ccccc4)n3)nc(N)c21 (single isomer, unassigned) [Example 77B, 4-amino-2-(8-benzylimidazo[1,2-a]pyrazin-6-yl)-5-cyclopropyl-5-ethyl-5H-pyrrolo[2,3-d]pyrimidin-6(7H)-one]",,30,176
"CC(C)C1(C)C(=O)Nc2nc(-c3cn4ccnc4c(Cc4ccccc4)n3)nc(N)c21 (single isomer, unassigned) [Example 80B, 4-amino-2-(8-benzylimidazo[1,2-a]pyrazin-6-yl)-5-isopropyl-5-methyl-5H-pyrrolo[2,3-d]pyrimidin-6(7H)-one]",88,253,
"CC1(C2CC2)C(=O)Nc2nc(-c3cn4ccnc4c(Cc4ccccc4)n3)nc(N)c21 (single isomer, unassigned) [Example 82B, 4-amino-2-(8-benzylimidazo[1,2-a]pyrazin-6-yl)-5-cyclopropyl-5-methyl-5H-pyrrolo[2,3-d]pyrimidin-6(7H)-one]",114,473,

# Now from value to compound:
Emax [%],EC50 [nM],% Act. [%],Compound
69,58,,"CC1(c2ccc(Cl)cc2)C(=O)Nc2nc(-c3cn4ccnc4cn3)nc(N3CCC(C(F)(F)F)C3)c21 (racemic) [Example 279A, 5-(4-chlorophenyl)-2-(imidazo[1,2-a]pyrazin-6-yl)-5-methyl-4-(3-(trifluoromethyl)pyrrolidin-1-yl)-5H-pyrrolo[2,3-d]pyrimidin-6(7H)-one]"
,959,154,"CC1(C(=O)NC2CC2)C(=O)Nc2nc(-c3cn4ccnc4c(Cc4cccc(F)c4)n3)nc(N)c21 (single isomer, unassigned) [Example 36B, 4-amino-N-cyclopropyl-2-(8-(3-fluorobenzyl)imidazo[1,2-a]pyrazin-6-yl)-5-methyl-6-oxo-6,7-dihydro-5H-pyrrolo[2,3-d]pyrimidine-5-carboxamide]"
,61,124,"Nc1nc(-c2cn3ccnc3c(Cc3cccc(F)c3)n2)nc2c1C(C(=O)NC1CC1)(C1CC1)C(=O)N2 (single isomer, unassigned) [Example 38A, 4-amino-N,5-dicyclopropyl-2-(8-(3-fluorobenzyl)imidazo[1,2-a]pyrazin-6-yl)-6-oxo-6,7-dihydro-5H-pyrrolo[2,3-d]pyrimidine-5-carboxamide]"
127,27,,"Nc1nc(-c2cn3ccnc3c(Cc3ccccc3)n2)nc2c1C(C(=O)NC1CC1)(C1CC1)C(=O)N2 (single isomer, unassigned) [Example 40B, 4-amino-2-(8-benzylimidazo[1,2-a]pyrazin-6-yl)-N,5-dicyclopropyl-6-oxo-6,7-dihydro-5H-pyrrolo[2,3-d]pyrimidine-5-carboxamide]"
,450,83,"Nc1nc(-c2cn3ccnc3c(CCC(F)(F)C(F)(F)F)n2)nc2c1C(C(=O)NC1CC1)(C1CC1)C(=O)N2 (single isomer, unassigned) [Example 61B, 4-amino-N,5-dicyclopropyl-6-oxo-2-(8-(3,3,4,4,4-pentafluorobutyl)imidazo[1,2-a]pyrazin-6-yl)-6,7-dihydro-5H-pyrrolo[2,3-d]pyrimidine-5-carboxamide]"
100,180,,"CCC1(C)C(=O)Nc2nc(-c3cn4ccnc4c(Cc4ccccc4)n3)nc(N)c21 (single isomer, unassigned) [Example 84B, 4-amino-2-(8-benzylimidazo[1,2-a]pyrazin-6-yl)-5-ethyl-5-methyl-5H-pyrrolo[2,3-d]pyrimidin-6(7H)-one]"
,140,129,"CC1(c2ccc(F)cc2)C(=O)Nc2nc(-c3cn4ccnc4c(Cc4cccc(F)c4)n3)nc(N)c21 (single isomer, unassigned) [Example 90B, 4-amino-2-(8-(3-fluorobenzyl)imidazo[1,2-a]pyrazin-6-yl)-5-(4-fluorophenyl)-5-methyl-5H-pyrrolo[2,3-d]pyrimidin-6(7H)-one]"
